Tests used:
[1] = system: red blood cell ghosts (plasma membrane); test: Membrane retention coefficient (MRC) in red blood cell ghosts; assay type: binding; conditions: for Δ MRC: change in MRC to 24 hr
Description: Determination of Membrane Retention Coefficient
The membrane retention coefficient (MRC) provides information regarding how well a given compound is retained in the plasma membrane of a cell and is determined as described below.
Generation of red blood cell ghosts for use as a model membrane is achieved by centrifuging whole blood at 300×g for 15 minutes, removal of the plasma and resuspension of the cell pellet in 0.83% (w/v) ammonium chloride. The ghosts are pelleted from the ammonium chloride by centrifuging at 10,000×g for 10 minutes. This ammonium chloride washing procedure is repeated a minimum of five times to insure that complete release of hemoglobin from the cells has occured. The ghosts are labeled with the compound in question at a concentration allowing for detection of the labeled ghosts by instrumental analysis or fluorescent microscopic methods, and at a concentration similar to those that would be used to label cells for a specific application as described above. For the determinations hereinbelow stock solutions of the compounds in question were prepared in ethanol at a molar concentration of 2×10^-3, and working dilutions of the compounds were prepared in iso-osmotic sucrose (52 g/500 ml distilled water). After incubation of the ghosts at an approximate concentration of 1×10^9 ghosts/ml in the working dilutions of the compounds for 10 minutes, the samples were centrifuged at 10,000×g to pellet the ghosts and the staining solution was aspirated from the samples. The labeled ghosts were resuspended in 1 ml of phosphate buffered saline solution containing 10% fetal bovine serum (PBS-FBS). Triplicate 20 ul aliquots were removed from each sample for the determination of the amount of total compound present. The samples were centrifuged as described above and triplicate 20 ul aliquots were removed from the supernatant for quantitative determination of amount of unbound compound present.
After sampling, the supernatant was aspirated and the red cell ghost pellet was resuspended in 1.0 ml of the PBS-FBS, which was once again sampled as described above. This procedure was repeated at least six times, allowing for detection of rapidly released compounds and was monitored after times equal to or greater than 24 hours to allow for the detection of more slowly released compounds. For the determination of the amount of compound present in each sample, the 20 ul aliquots were extracted into 3.0 ml of n-butanol by shaking. The samples were centrifuged at 3000×g to remove membrane debris and the butanol fractions were assayed for compound concentration. Fluorescent compounds are assayed in this manner using peak excitation and emission wave lengths for the particular compounds being assayed to determine the fluorescence units for each sample.
The determination of the amount of compound present in each sample as described above allows for the calculation of the MRC for each washing or fixed time point. The value is obtained by the following formula: […]
wherein CT represents the amount of compound present (in units determined by the method used to assay the compound) in the total sample and CS represents the amount of compound present in the supernatant sample for that particular time point. The comparison of the MRC values defines criteria for identification of the compounds of this invention, these criteria being: 1) the MRC values determined for each washing steps should have a value of at least about 90 and 2) the percent difference between MRC values over at least a 24 hour time period should be less than about 10%. [drawing 14]
The data provided in Table I below are the results from one experiment and serve as an example of the MRC determination. […]

[2] = system: membrane ghosts; test: Membrane binding stability (MBS) assay in membrane ghosts with 5% albumin; conditions: 24 hours, Table III
From the text: Determination of Membrane Binding Stability
For example, very stable binding to membranes might be required for applications such as delivery of therapeutic radionuclides to tumor sites, as loss of compound could lead to the radionuclide producing its toxic effect at non-tumor sites. On the other hand, more rapid loss of compound from biomembranes may be desirable for application involving controlled delivery rates of therapeutic agents. Accordingly, there is described hereinbelow an assay for determining MBS under conditions approximating those found in vivo.
In carrying out this assay, approximately physiological concentrations of serum albumin (5%) are used. […] To better approximate the effects of large fluid volumes to which labelled cells are exposed in vivo, the assay for MBS is carried out by suspending a decreasing number of labeled membrane ghosts in a fixed volume of albumin-containing saline. At 24 hours, the total amount of label present is determined by sampling the well mixed suspension; subsequently, the membrane ghosts are pelleted by centrifugation and the amount of label released into the supernatant is determined and expressed as a percent of total label. Percent retention is plotted against number of ghosts per ml. of suspension, and MBS is determined as the area under the curve between 5×10^7 ghosts/ml. and 4×10^8 ghosts/ml.

Row | SMILES | Membrane retention coefficient (MRC), 24 HR [1] | Δ MRC [1] | Membrane retention coefficient (MRC), WASH 1 [1] | Membrane retention coefficient (MRC), WASH 2 [1] | Membrane retention coefficient (MRC), WASH 3 [1] | Membrane retention coefficient (MRC), WASH 4 [1] | Membrane retention coefficient (MRC), WASH 5 [1] | Membrane retention coefficient (MRC), WASH 6 [1] | MBS [2]
1 | CCCCCCCCCCCCCCCCCCN1C(=CC=Cc2oc3ccccc3[n+]2CCCCCCCC)Oc2ccccc21 [I] | 97.65 | 2.08% | 94.69 | 98.24 | 98.32 | 98.78 | 98.96 | 99.73 | –
2 | CCCCCCCCCCCCCCCCCC[n+]1c2cc(N(C)C)ccc2cc2ccc(N(C)C)cc21 [M] | 42.88 | 55.79% | 91.01 | 95.12 | 95.82 | 96.42 | 96.27 | 97.01 | –
3 | CCCCCCCCCCCCCCCCCCN1C(=CC=Cc2oc3ccccc3[n+]2CCC)Oc2ccccc21 [E] | 53.81 | 44.62% | 90.69 | 94.74 | 96.28 | 96.74 | 96.41 | 97.17 | –
4 | CCCCCCCCCCCCCCCCCCCCCCN1C(=CC=Cc2oc3ccccc3[n+]2CCC)Oc2ccccc21 [G] | 96.90 | 1.46% | 94.42 | 96.96 | 98.03 | 97.93 | 97.92 | 98.34 | –
5 | CCCCCCCCCCCCCCN1C(=CC=Cc2oc3ccccc3[n+]2CCC)Oc2ccccc21 [D] | 18.84 | 75.82% | 50.40 | 61.20 | 64.45 | 65.85 | 70.62 | 77.92 | –
6 | CCCCCCCCCCCCCCCCCCCCCCN1C(=CC=Cc2oc3ccccc3[n+]2CCC)Oc2ccccc21 [U] | – | – | – | – | – | – | – | – | 47 ± 3.1%
7 | CCCCCCCCCCCCCCCCCCCCCCN1C(=CC=Cc2oc3ccccc3[n+]2CCC)Oc2ccccc21 [K] | 97.90 | 1.56% | 97.35 | 98.47 | 98.16 | 98.99 | 99.01 | 99.46 | –
8 | CCCCCCCCCCCCCCCCCCCCN1C(=CC=Cc2oc3ccccc3[n+]2CCC)Oc2ccccc21 [Compound H] | 90.10 | 8.43% | 91.70 | 97.22 | 97.97 | 98.24 | 98.09 | 98.40 | –
9 | CCC[n+]1c(C=CC=C2Oc3ccccc3N2CCC(C)CCCC(C)CCCC(C)CCCC(C)C)oc2ccccc21 (centres unmarked) [F] | 36.77 | 61.64% | 88.82 | 93.94 | 95.15 | 95.26 | 94.51 | 96.64 | –
10 | CCCCCN1C(=CC=CC2=[N+](CCCCC)c3ccccc3C2(C)C)C(C)(C)c2ccccc21 [A] | 0.00 | 100.00% | 51.63 | 51.12 | 44.82 | 41.39 | 12.59 | 17.48 | –
11 | CCCCCCCCCCN1C(=CC=CC2=[N+](CCCCCCCCCC)c3ccccc3C2(C)C)C(C)(C)c2ccccc21 [B] | 54.08 | 42.95% | 83.28 | 92.36 | 94.63 | 94.94 | 95.33 | 94.80 | –
12 | CCCCCCCCCCCCCCCCCCN1C(=CC=Cc2oc3ccccc3[n+]2CCCCCCCCCCCCCCCCCC)Oc2ccccc21 [Y] | – | – | – | – | – | – | – | – | 93 ± 1.0%
13 | CCCCCCCCCCCCCCCCCCCCCCN1C(=CC=Cc2sc3ccccc3[n+]2CCC)Sc2ccccc21 [V] | – | – | – | – | – | – | – | – | 64 ± 3.4%
14 | CCCCCCCCCCCCCCN1C(=CC=CC2=[N+](CCCCCCCCCCCCCC)c3ccccc3C2(C)C)C(C)(C)c2ccccc21 [C] | 93.90 | 5.26% | 94.85 | 97.24 | 98.40 | 98.64 | 98.43 | 99.12 | –
15 | CCCCCCCCCCCCCCN1C(=CC=Cc2oc3ccccc3[n+]2CCCCCCCCCCCCCC)Oc2ccccc21 [W] | – | – | – | – | – | – | – | – | 77 ± 1.1%
16 | CCCCCCCCCCCCCCN1C(=CC=Cc2sc3ccccc3[n+]2CCCCCCCCCCCCCC)Sc2ccccc21 [X] | – | – | – | – | – | – | – | – | 91 ± 1.3%
17 | CCCCCCCCCCCCCCCCCCN1C(=CC=Cc2oc3ccccc3[n+]2CCCCC)Oc2ccccc21 [J] | 87.24 | 10.57% | 94.07 | 96.99 | 98.66 | 98.39 | 98.82 | 97.56 | –
18 | CCCCCCCCCCCCCCCCCCCCCCCCCC[n+]1c2cc(N(C)C)ccc2cc2ccc(N(C)C)cc21 [N] | 98.27 | 0.61% | 95.97 | 97.51 | 98.32 | 98.48 | 98.71 | 98.88 | –
19 | CCCCCCCCCCCCCCCCCCN1C(=CC=Cc2sc3ccccc3[n+]2CCCCCCCCCCCCCCCCCC)Sc2ccccc21 [AA] | – | – | – | – | – | – | – | – | 94 ± 1.5%
20 | CCCCCCCCCCCCCCCCCCCCCC[n+]1c2cc(N(C)C)ccc2cc2ccc(N(C)C)cc21 [L] | 96.82 | 3.12% | 97.90 | 98.89 | 98.90 | 99.18 | 99.09 | 99.22 | –
21 | CCCCCCCCCCCCCCN1C(=CC=CC2=[N+](CCC)c3ccccc3C2(C)C)C(C)(C)c2ccccc21 [AC] | – | – | – | – | – | – | – | – | 10 ± 2.1%

Source: patent US5667764A, “Compounds, compositions and methods for binding bio-affecting substances to surface membranes of bio-particles” (Zynaxis, Inc., priority 1992, dated 1997)
